Measured values: the NIST ThermoML archive (doi:10.1021/je101250d)
Values joined by “and” are separate entries in the source; they are usually repeats but may differ in a detail not shown here. Identical values can stand only once.

Columns and labels:
[1] = Liquid; for mass density: 298.15 K, 101.33 kPa, Vibrating tube method
[2] = refractive index (Na D-line) (dimensionless); conditions: 298.15 K; 101.33 kPa; Liquid; Standard Abbe refractometry
[3] = Boiling temperature at pressure P; conditions: 101.33 kPa; Liquid; Ebulliometric method (Recirculating still)

CCC(C)O (stereo not given) [butan-2-ol]
Conditions	mass density [kg/m3]	refractive index
[1]	802.98	–
[2]	–	1.39676

[1]
Conditions	vapor or sublimation pressure [kPa]
334.83 K	20.01
339.42 K	25.01
343.31 K	30.01
346.69 K	35.01
349.69 K	40.01
352.38 K	45.01
354.84 K	50.01
354.91 K	50
355.12 K	50
357.11 K	55.01
359.21 K	60.01
361.55 K	66.01
364.08 K	73.01
364.8 K	75
365.2 K	75
366.4 K	80.01
368.58 K	87.01
370.61 K	94.01
370.66 K	94
371.17 K	94

CCC(C)(C)OC [2-methoxy-2-methylbutane]
Conditions	Boiling temperature at pressure P [°C]	mass density [kg/m3]	refractive index
[1]	–	765.83	–
[2]	–	–	1.38712
[3]	86.37	–	–

[1]
Conditions	vapor or sublimation pressure [kPa]
313.44 K	20.01
318.99 K	25.01
323.68 K	30.01
327.77 K	35.01
331.41 K	40.01
334.69 K	45.01
337.64 K	50
337.66 K	50
337.69 K	50.01
340.46 K	55.01
343.03 K	60.01
345.89 K	66.01
348.97 K	73.01
349.73 K	75
349.8 K	75
351.84 K	80.01
354.52 K	87.01
356.92 K	94
357.02 K	94.01
357.04 K	94
359.95 K	102.73

CCCCCCC [heptane]
Conditions	Boiling temperature at pressure P [°C]	mass density [kg/m3]	refractive index
[1]	–	679.55	–
[2]	–	–	1.38668
[3]	98.4	–	–

[1]
Conditions	vapor or sublimation pressure
319.06 K	16.01 kPa
329.07 K	24.01 kPa
334.91 K	30.01 kPa
339.08 K	35.01 kPa
342.78 K	40.01 kPa
346.14 K	45.01 kPa
349.19 K	50.01 kPa and 50 kPa
349.24 K	50 kPa
352.01 K	55.01 kPa
354.63 K	60.01 kPa
357.1 K	65.01 kPa
359.42 K	70.01 kPa
361.59 K	75.01 kPa
361.6 K	75 kPa
361.66 K	75 kPa
363.67 K	80.01 kPa
366.41 K	87.01 kPa
368.98 K	94 kPa
368.99 K	94.01 kPa
369.04 K	94 kPa
371.63 K	101.74 kPa
